The values that follow come from US20090211893A1, “Photo-Activatable Amino Acids” (priority 2005, published 2009).

For data set [1], the system named is COS7 cells. Kind of data set: Protein biosynthesis by incorporation of [3H]Phe. The format is cell-based, monkey. The text has this: (§1) Unnatural amino acids frequently are toxic to cells. To find out if this is the case for photo-amino acids of the invention, we monitored in COS7 cells protein biosynthesis by incorporation of [^3H]Phe and viability by trypan blue exclusion of cells grown in the presence or absence of the photo-amino acids photo-Leu, photo-Met and photo-Ile. Due to the lack of two essential amino acids in the growth medium, protein biosynthesis is reduced to about 65% of that in a full growth medium. […] Although cells grew slightly slower than in full growth medium, viability (Table 2) and cell morphology (not shown) were unaffected.

For data set [2], the system named is COS7 cells. Description: Cell viability by trypan blue exclusion. The format is cell-based, monkey. The note with it: LM-2 medium supplement; percent ± SD of viable cells (n = 6).
Description: as §1

The test system of data set [3] is E. coli beta-galactosidase. Kind of data set: Activity of beta-galactosidase expressed in cells grown with photo-amino acids. The settings on record: COS 7 cells, 20 h in LM-2 with photo-amino acid; percent ± SD (n = 6) of value in DMEM + FCS. The format is cell-based, monkey. The text has this:
We furthermore tested, whether proteins produced by cells grown with photo-amino acids are functional or not. For that, we transfected cells with GFP-fusion constructs of the small GTPase Rab5 and of mutated Rab5 that is constitutively activated (GFP-Rab5QL) or dominant negative (GFP-Rab5SN)^19 and monitored the GFP fluorescence by confocal microscopy. Four hours after transfection, when cells were switched to media containing photo-amino acids, no GFP signal was detectable (see FIG. 7). […] Both, staining intensity and localization were unaffected by the presence of either of the photo-amino acids. Taking into account a frequency of substitution of photo-Met for Met of 35% (see below) and the amounts of Met in Rab5 and GFP, more than 80% of the fusion protein will have photo-Met in both the Rab5- and the GFP-part of the fusion, more than 99% in at least one of the two parts. […] To corroborate this with a quantitative assay, we measured the activity of beta-galactosidase that was expressed in the absence or presence of photo-amino acids (see Table 4). Activity in LM-2 labeling medium was 79% of that in full DMEM. The addition of either of the three photo-amino acids or of a mixture of photo-Met and photo-Leu had no significant additional effect. E. coli beta-galactosidase contains 23 methionines of which on average 8 would be replaced by photo-Met; less than 0.01% of the protein are expected to have no substitution by photo-Met. We conclude that photo-amino acids are non-toxic to cultivated mammalian cells and can, at least partially, functionally replace branched chain amino acids and methionine.

For another data set, the system named is caveolin-1. Kind of data set: Photo-crosslinking of transfected caveolin-1 in COS7 cells. The note with it: irradiated samples, COS7 cells in LM-4. The format is cell-based, human. On the procedure: FIG. 3: Photo-crosslinking induced by photo-amino acids. COS7 cells (panels a,b) or HeLa cells (panel c) were grown in LM-4 (panel a) or LM-2 (panels b,c) in the absence or presence of L-photo-Leu (pL), L-photo-Met (pM) or DL-photo-Ile (pl) or mixtures of them (pLM or PLMI) followed by UV irradiation (+) or no irradiation (−). cross-linked products formed after UV-irradiation were detected by SDS-PAGE followed by western blotting using (a) anti-caveolin 1 to detect overexpressed caveolin 1, (b) anti-stomatin to detect endogenous stomatin or (c) anti-EEA1 to detect endogenous EEA1. In panel b, lanes 8 and 9 show cross-linking with two different concentrations of the chemical cross-linker DSS for comparison of cross-linking efficiency. In panel c, photocrosslinking of endogenous EEA1 by photo-Leu and photo-Met is compared to chemical cross-linking using DSS or para-formaldehyde (PFA) as indicated. Note that chemical cross-linking leads to protein aggregates that are not resolvable by SDS-PAGE while photocrosslinking identifies more than six discrete cross-linked bands.
COS7 (monkey kidney) cells were grown in DMEM high glucose (Gibco no. 11995; with L-glutamine and Na-pyruvate)+10% FCS. Typically, 3 cm2 of cells are needed for a cross-linking experiment with detection by western blotting. At about 70%, medium was replaced by LM-4 (DMEM lacking Met, Leu, Ile and Val and phenol red, supplemented with 5% dialyzed FCS) or by LM-2 (LM-4+1 mM of each Ile and Val). Photo-amino acids were added to a final concentration of 4 mM photo-Leu and photo-Ile, 1.7 mM photo-Met and cells were cultivated for further 22 h followed by washing with PBS and UV-irradiation using a 200 W high pressure mercury lamp (Oriel Photomax) with a glass filter to remove wavelengths shorter 310 nm. The samples were placed at a distance of 38 cm to the light source, corresponding to a illuminated area of 105 mm diameter. […] We used an irradiation time 1-3 min for experiments with living cells. […] Lysis of cells, SDS-PAGE and western blotting were done as described^33. […]

In the data set with COS7 cells [1] (LM-2 medium supplement, value in full DMEM medium set to 100, average ± SD of triplicate), `CC1(CCC(N)C(=O)O)N=N1` [photo-Met, L-2-amino-5,5′-azi-hexanoic acid] displayed a Protein synthesis of 76.0 ± 6.4. Also, the “effect on protein biosynthesis” value in the data set with COS7 cells [1] (addition to LM-2 medium) was “increased protein biosynthesis”. The compound also showed a Cell viability in the data set with COS7 cells [2] of 99.8 ± 0.1%. The beta-galactosidase activity in data set [3] is recorded as 73 ± 5%. Moreover, in the data set with caveolin-1, the “formation of covalent caveolin dimers upon UV irradiation” value was “significant formation of a cross-linked dimer”.
